In patent US8367342B2, “Cardiac hypertrophy” (Lead Pharma Drug Development IP B.V., priority 2006, dated 2013):

Test system: neonatal rat ventricular myocytes
Assay: Cardiomyocyte hypertrophy (a-actinin staining, cell surface area) in cultured neonatal rat cardiomyocytes
Assay type: cell-based
Set-up: dose or concentration left out as unconfirmed
Conditions: cells treated with the control siRNA; AdCnA infection or phenylephrine
Method: Cardiomyocyte cultures and siRNA transfection. Neonatal rat ventricular myocytes were obtained as described previously in detail^6. Neonatal ventricular rat myocytes were obtained by enzymatic dissociation of 1-2 day old rat neonatal ventricles. Ventricles were stored in HEPES buffered DMEM (pH. 7.4) prior to multiple rounds of enzymatic digestion in DMEM nutrient mixture F-12 Ham base (Sigma) supplemented with 0.7 mg/ml collagenase type 2 (Invitrogen) and 1 mg/ml […] (Sigma). Cells were collected by centrifugation at 61×g for 10 min., resuspended in neonatal calf serum (Invitrogen) and stored in an incubator at 37° C. All cell suspensions were pooled, centrifuged at 61×g for 10 min. and resuspended in DMEM (Invitrogen) supplemented with 10% horse serum (Invitrogen) and 5% fetal calf serum (Invitrogen). […]
Immunocytochemistry and confocal microscopy. […] Cells were washed 3 times with PBS for 5 minutes, mounted with coverslips in 0.1 M Tris-HCl (pH 9.5)-glycerol (3:7) including 50 mg/ml n-propylgallate as anti-fading reagent, and analyzed by confocal microscopy using a Zeiss LSM 510 META instrument. […] Cell surface areas were determined using SPOT-imaging software (Diagnostic Instruments) on 80-100 GFP-positive cardiomyocytes in 10 to 20 fields in three independent experiments. […]

Structure (SMILES): CNC[C@H](O)c1cccc(O)c1 [PE, phenylephrine]
- hypertrophy response: robust hypertrophy response
